Test results as given in ChEMBL document CHEMBL3885881, “DrugMatrix”.

Organism: Rattus norvegicus
Assay: DrugMatrix - Regimen: Daily Repeat
Format: toxicity, organism-based, Sprague-Dawley
Design: regimen Daily Repeat, gender Male, age 6-8 weeks
Details: in vivo, iv, vehicle 100 % SALINE; for ABSOLUTE BASOPHIL / ABSOLUTE EOSINOPHIL / ABSOLUTE LYMPHOCYTE / ABSOLUTE MONOCYTE / ABSOLUTE SEGMENTED NEUTROPHIL / BASOPHIL / EOSINOPHIL / ERYTHROCYTE COUNT / HEMATOCRIT / HEMOGLOBIN / LEUKOCYTE COUNT / LYMPHOCYTE / MEAN CORPUSCULAR HEMOGLOBIN / MEAN CORPUSCULAR HEMOGLOBIN CONCENTRATION / MEAN CORPUSCULAR VOLUME / MONOCYTE / NEUTROPHIL / NUCLEATED RED BLOOD CELLS / PLATELET COUNT: tissue Blood; for ALANINE AMINOTRANSFERASE / ALBUMIN / ALKALINE PHOSPHATASE / ASPARTATE AMINOTRANSFERASE / BLOOD UREA NITROGEN / CARBON DIOXIDE / CHLORIDE / CHOLESTEROL / CREATINE PHOSPHOKINASE / CREATININE / GLUCOSE / LACTATE DEHYDROGENASE / LIPASE / PHOSPHORUS / POTASSIUM / SODIUM / TOTAL BILIRUBIN / TOTAL PROTEIN / URIC ACID: tissue Plasma
[1] = 27 mg/kg, 72 h, dose level High, time 3 day
[2] = 27 mg/kg, 120 h, dose level High, time 5 day
[3] = […], 72 h, dose 2.7 mg/Kg, dose level Low, time 3 day
[4] = […], 120 h, dose 2.7 mg/Kg, dose level Low, time 5 day

In the case of `COC(=O)CCc1ccc(OCC(O)CNC(C)C)cc1` (configuration not stated) [ESMOLOL], the “ABSOLUTE BASOPHIL” value [1] is reported as 0 CELLS/uL, the “ABSOLUTE EOSINOPHIL” value [1] is reported as 31.33 CELLS/uL and the “ABSOLUTE LYMPHOCYTE” value [1] is reported as 10926.67 CELLS/uL. For the same compound, the “ABSOLUTE MONOCYTE” value [1] was 68.67 CELLS/uL, the “ABSOLUTE SEGMENTED NEUTROPHIL” value [1] was 673.33 CELLS/uL and the BASOPHIL [1] was 0%. For the same compound, the EOSINOPHIL [1] was 0.33%, the “ERYTHROCYTE COUNT” value [1] was 5.92 x10E6/uL and the HEMATOCRIT [1] was 37.53%. For the same compound, the HEMOGLOBIN [1] was 14.47 G/DL, the “LEUKOCYTE COUNT” value [1] was 11.7 x10E3/uL and the LYMPHOCYTE [1] was 92.67%. For the same compound, the “MEAN CORPUSCULAR HEMOGLOBIN” value [1] was 24.37 pg, the “MEAN CORPUSCULAR HEMOGLOBIN CONCENTRATION” value [1] was 38.63 G/DL and the “MEAN CORPUSCULAR VOLUME” value [1] was 63.03 fL. The MONOCYTE [1] was 0.67%, the NEUTROPHIL [1] was 6.33% and the “NUCLEATED RED BLOOD CELLS” value [1] was 0 /100WBC. For the same compound, the “PLATELET COUNT” value [1] was 1320 x10E3/uL, the “ALANINE AMINOTRANSFERASE” value [1] was 71.33 u/L and the ALBUMIN [1] was 4.1 G/DL. For the same compound, the “ALKALINE PHOSPHATASE” value [1] was 456.33 u/L, the “ASPARTATE AMINOTRANSFERASE” value [1] was 161 u/L and the “BLOOD UREA NITROGEN” value [1] was 16.67 mg/dL. The “CARBON DIOXIDE” value [1] was 28.67 mmol/L, the CHLORIDE [1] was 100.33 MEQ/L and the CHOLESTEROL [1] was 75.67 mg/dL. The “CREATINE PHOSPHOKINASE” value [1] was 1751 u/L, the CREATININE [1] was 0.23 mg/dL and the GLUCOSE [1] was 225 mg/dL. The “LACTATE DEHYDROGENASE” value [1] was 862 u/L, the LIPASE [1] was 12.33 u/L and the PHOSPHORUS [1] was 14.17 mg/dL. The POTASSIUM [1] was 8.56 MEQ/L, the SODIUM [1] was 142.57 MEQ/L and the “TOTAL BILIRUBIN” value [1] was 0.4 mg/dL. The “TOTAL PROTEIN” value [1] was 5.8 G/DL, the “URIC ACID” value [1] was 4.13 mg/dL and the “ABSOLUTE BASOPHIL” value [2] was 0 CELLS/uL. The “ABSOLUTE EOSINOPHIL” value [2] was 0 CELLS/uL, the “ABSOLUTE LYMPHOCYTE” value [2] was 16580.67 CELLS/uL and the “ABSOLUTE MONOCYTE” value [2] was 300 CELLS/uL. The “ABSOLUTE SEGMENTED NEUTROPHIL” value [2] was 1652.67 CELLS/uL, the BASOPHIL [2] was 0% and the EOSINOPHIL [2] was 0%. The “ERYTHROCYTE COUNT” value [2] was 5.69 x10E6/uL, the HEMATOCRIT [2] was 36.33% and the HEMOGLOBIN [2] was 14.23 G/DL. For the same compound, the “LEUKOCYTE COUNT” value [2] was 18.53 x10E3/uL, the LYMPHOCYTE [2] was 89.33% and the “MEAN CORPUSCULAR HEMOGLOBIN” value [2] was 25 pg. The “MEAN CORPUSCULAR HEMOGLOBIN CONCENTRATION” value [2] was 39.2 G/DL, the “MEAN CORPUSCULAR VOLUME” value [2] was 63.8 fL and the MONOCYTE [2] was 1.67%. The NEUTROPHIL [2] was 9%, the “NUCLEATED RED BLOOD CELLS” value [2] was 0 /100WBC and the “PLATELET COUNT” value [2] was 1133.67 x10E3/uL. The “ALANINE AMINOTRANSFERASE” value [2] was 63.33 u/L, the ALBUMIN [2] was 4.27 G/DL and the “ALKALINE PHOSPHATASE” value [2] was 363.67 u/L. The “ASPARTATE AMINOTRANSFERASE” value [2] was 126 u/L, the “BLOOD UREA NITROGEN” value [2] was 15.33 mg/dL and the “CARBON DIOXIDE” value [2] was 27.33 mmol/L. For the same compound, the CHLORIDE [2] was 99.67 MEQ/L, the CHOLESTEROL [2] was 70.33 mg/dL and the “CREATINE PHOSPHOKINASE” value [2] was 284 u/L. The CREATININE [2] was 0.22 mg/dL, the GLUCOSE [2] was 147.33 mg/dL and the “LACTATE DEHYDROGENASE” value [2] was 238.67 u/L. The LIPASE [2] was 9.33 u/L, the PHOSPHORUS [2] was 11 mg/dL and the POTASSIUM [2] was 6.94 MEQ/L. The SODIUM [2] was 142.83 MEQ/L, the “TOTAL BILIRUBIN” value [2] was 0.17 mg/dL and the “TOTAL PROTEIN” value [2] was 6.3 G/DL. The “URIC ACID” value [2] was 1.47 mg/dL, the “ABSOLUTE BASOPHIL” value [3] was 0 CELLS/uL and the “ABSOLUTE EOSINOPHIL” value [3] was 0 CELLS/uL. For the same compound, the “ABSOLUTE LYMPHOCYTE” value [3] was 13243.33 CELLS/uL, the “ABSOLUTE MONOCYTE” value [3] was 97.67 CELLS/uL and the “ABSOLUTE SEGMENTED NEUTROPHIL” value [3] was 1325.67 CELLS/uL. For the same compound, the BASOPHIL [3] was 0%, the EOSINOPHIL [3] was 0% and the “ERYTHROCYTE COUNT” value [3] was 5.56 x10E6/uL. For the same compound, the HEMATOCRIT [3] was 35.9%, the HEMOGLOBIN [3] was 14.23 G/DL and the “LEUKOCYTE COUNT” value [3] was 14.67 x10E3/uL. For the same compound, the LYMPHOCYTE [3] was 90.33%, the “MEAN CORPUSCULAR HEMOGLOBIN” value [3] was 25.77 pg and the “MEAN CORPUSCULAR HEMOGLOBIN CONCENTRATION” value [3] was 39.73 G/DL. For the same compound, the “MEAN CORPUSCULAR VOLUME” value [3] was 64.73 fL, the MONOCYTE [3] was 0.67% and the NEUTROPHIL [3] was 9%. For the same compound, the “NUCLEATED RED BLOOD CELLS” value [3] was 0 /100WBC, the “PLATELET COUNT” value [3] was 1093.67 x10E3/uL and the “ALANINE AMINOTRANSFERASE” value [3] was 50 u/L. The ALBUMIN [3] was 4.43 G/DL, the “ALKALINE PHOSPHATASE” value [3] was 440 u/L and the “ASPARTATE AMINOTRANSFERASE” value [3] was 82 u/L. The “BLOOD UREA NITROGEN” value [3] was 17.33 mg/dL, the “CARBON DIOXIDE” value [3] was 28.67 mmol/L and the CHLORIDE [3] was 100.33 MEQ/L. The CHOLESTEROL [3] was 69.33 mg/dL, the “CREATINE PHOSPHOKINASE” value [3] was 423.67 u/L and the CREATININE [3] was 0.22 mg/dL. For the same compound, the GLUCOSE [3] was 193 mg/dL, the “LACTATE DEHYDROGENASE” value [3] was 155 u/L and the LIPASE [3] was 9 u/L. It also gave a PHOSPHORUS [3] of 12.67 mg/dL, a POTASSIUM [3] of 7.24 MEQ/L and an SODIUM [3] of 143.23 MEQ/L. The “TOTAL BILIRUBIN” value [3] was 0.23 mg/dL, the “TOTAL PROTEIN” value [3] was 5.97 G/DL and the “URIC ACID” value [3] was 2.6 mg/dL. The “ABSOLUTE BASOPHIL” value [4] was 0 CELLS/uL, the “ABSOLUTE EOSINOPHIL” value [4] was 0 CELLS/uL and the “ABSOLUTE LYMPHOCYTE” value [4] was 9825 CELLS/uL. The “ABSOLUTE MONOCYTE” value [4] was 143 CELLS/uL, the “ABSOLUTE SEGMENTED NEUTROPHIL” value [4] was 698.67 CELLS/uL and the BASOPHIL [4] was 0%. For the same compound, the EOSINOPHIL [4] was 0%, the “ERYTHROCYTE COUNT” value [4] was 6.36 x10E6/uL and the HEMATOCRIT [4] was 40.2%. The HEMOGLOBIN [4] was 15.63 G/DL, the “LEUKOCYTE COUNT” value [4] was 10.67 x10E3/uL and the LYMPHOCYTE [4] was 92%. The “MEAN CORPUSCULAR HEMOGLOBIN” value [4] was 24.57 pg, the “MEAN CORPUSCULAR HEMOGLOBIN CONCENTRATION” value [4] was 38.87 G/DL and the “MEAN CORPUSCULAR VOLUME” value [4] was 63.2 fL. For the same compound, the MONOCYTE [4] was 1.33%, the NEUTROPHIL [4] was 6.67% and the “NUCLEATED RED BLOOD CELLS” value [4] was 0.33 /100WBC. The “PLATELET COUNT” value [4] was 1330 x10E3/uL, the “ALANINE AMINOTRANSFERASE” value [4] was 35.67 u/L and the ALBUMIN [4] was 4.67 G/DL. The “ALKALINE PHOSPHATASE” value [4] was 337 u/L, the “ASPARTATE AMINOTRANSFERASE” value [4] was 68.67 u/L and the “BLOOD UREA NITROGEN” value [4] was 21.67 mg/dL. For the same compound, the “CARBON DIOXIDE” value [4] was 29.67 mmol/L, the CHLORIDE [4] was 103 MEQ/L and the CHOLESTEROL [4] was 101 mg/dL. For the same compound, the “CREATINE PHOSPHOKINASE” value [4] was 276 u/L, the CREATININE [4] was 0.21 mg/dL and the GLUCOSE [4] was 155 mg/dL. For the same compound, the “LACTATE DEHYDROGENASE” value [4] was 214.33 u/L, the LIPASE [4] was 10 u/L and the PHOSPHORUS [4] was 12.37 mg/dL. For the same compound, the POTASSIUM [4] was 6.64 MEQ/L, the SODIUM [4] was 148.6 MEQ/L and the “TOTAL BILIRUBIN” value [4] was 0.23 mg/dL. The “TOTAL PROTEIN” value [4] was 6.97 G/DL and the “URIC ACID” value [4] was 2 mg/dL.
